{
  "source": "ChEMBL document CHEMBL1155237",
  "about": "“Selective inhibitors of the mutant B-Raf pathway: discovery of a potent and orally bioavailable aminoisoquinoline” (J Med Chem, 2009)",
  "set-up_in_all_cases": "scale not given: the % may be the effect or the level left",
  "key": {"[1]": {"molecular_target": "MAP/microtubule affinity-regulating kinase 3 (Homo sapiens) (UniProt P27448)", "assay": "Inhibition of MARK3 assessed as enzyme activity at 1 uM relative to untreated control"}, "[2]": {"molecular_target": "Dual specificity mitogen-activated protein kinase kinase 1 (Homo sapiens) (UniProt Q02750)", "sequence (Q02750 whole entry)": "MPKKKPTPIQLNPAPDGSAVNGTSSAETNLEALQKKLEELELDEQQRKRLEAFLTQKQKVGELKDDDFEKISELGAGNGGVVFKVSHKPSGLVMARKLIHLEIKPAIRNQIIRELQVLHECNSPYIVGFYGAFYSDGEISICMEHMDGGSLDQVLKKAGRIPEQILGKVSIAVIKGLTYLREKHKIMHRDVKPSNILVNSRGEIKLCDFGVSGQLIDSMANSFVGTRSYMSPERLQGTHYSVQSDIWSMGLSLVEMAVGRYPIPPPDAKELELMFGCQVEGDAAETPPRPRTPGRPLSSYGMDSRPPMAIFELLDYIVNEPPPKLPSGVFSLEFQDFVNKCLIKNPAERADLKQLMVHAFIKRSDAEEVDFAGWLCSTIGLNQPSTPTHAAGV", "assay": "Inhibition of MEK1 assessed as enzyme activity at 1 uM relative to untreated control"}, "[3]": {"molecular_target": "Mitogen-activated protein kinase kinase kinase 9 (Homo sapiens) (UniProt P80192)", "assay": "Inhibition of MLK1 assessed as enzyme activity at 1 uM relative to untreated control"}, "[4]": {"molecular_target": "Mitogen-activated protein kinase kinase kinase 11 (Homo sapiens) (UniProt Q16584)", "sequence (Q16584 whole entry, looked up)": "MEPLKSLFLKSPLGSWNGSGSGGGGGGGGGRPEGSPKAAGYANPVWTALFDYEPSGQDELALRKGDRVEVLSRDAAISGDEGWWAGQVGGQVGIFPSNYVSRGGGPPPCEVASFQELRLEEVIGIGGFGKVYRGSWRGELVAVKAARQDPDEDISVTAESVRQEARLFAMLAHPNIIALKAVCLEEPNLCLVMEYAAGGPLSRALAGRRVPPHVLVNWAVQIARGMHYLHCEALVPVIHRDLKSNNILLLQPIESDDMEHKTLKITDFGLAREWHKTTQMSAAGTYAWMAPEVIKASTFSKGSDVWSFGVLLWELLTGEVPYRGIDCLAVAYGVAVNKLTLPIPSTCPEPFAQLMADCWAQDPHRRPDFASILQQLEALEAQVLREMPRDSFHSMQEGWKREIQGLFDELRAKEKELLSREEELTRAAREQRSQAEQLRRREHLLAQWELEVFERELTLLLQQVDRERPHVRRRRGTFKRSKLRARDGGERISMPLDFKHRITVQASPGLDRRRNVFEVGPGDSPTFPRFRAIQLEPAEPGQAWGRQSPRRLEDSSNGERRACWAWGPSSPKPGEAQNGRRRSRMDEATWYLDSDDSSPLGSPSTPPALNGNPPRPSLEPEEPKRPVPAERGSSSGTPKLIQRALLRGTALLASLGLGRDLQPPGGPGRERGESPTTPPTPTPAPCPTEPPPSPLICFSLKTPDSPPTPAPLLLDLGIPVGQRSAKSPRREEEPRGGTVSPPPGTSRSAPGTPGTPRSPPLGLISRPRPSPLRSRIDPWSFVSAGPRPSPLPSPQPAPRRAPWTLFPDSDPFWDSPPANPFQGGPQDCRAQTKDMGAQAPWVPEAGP", "assay": "Inhibition of MLK3 assessed as enzyme activity at 1 uM relative to untreated control"}, "[5]": {"molecular_target": "Serine/threonine-protein kinase 38-like (Homo sapiens) (UniProt Q9Y2H1)", "sequence (Q9Y2H1 2-464 limits assumed)": "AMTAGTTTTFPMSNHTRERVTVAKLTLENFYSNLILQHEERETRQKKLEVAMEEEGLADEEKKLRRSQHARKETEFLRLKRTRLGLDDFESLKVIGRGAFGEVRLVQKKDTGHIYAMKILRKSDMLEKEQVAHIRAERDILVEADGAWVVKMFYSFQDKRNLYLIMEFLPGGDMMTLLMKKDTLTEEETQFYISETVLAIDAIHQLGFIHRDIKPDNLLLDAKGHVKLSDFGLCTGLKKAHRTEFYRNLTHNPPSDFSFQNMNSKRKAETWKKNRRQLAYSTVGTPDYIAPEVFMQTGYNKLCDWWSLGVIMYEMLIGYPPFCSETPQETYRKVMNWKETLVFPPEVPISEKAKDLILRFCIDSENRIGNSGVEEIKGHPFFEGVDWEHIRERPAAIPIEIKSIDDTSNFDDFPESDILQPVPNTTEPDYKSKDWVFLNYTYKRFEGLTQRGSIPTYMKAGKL", "assay": "Inhibition of NDR2 assessed as enzyme activity at 1 uM relative to untreated control"}, "[6]": {"molecular_target": "Serine/threonine-protein kinase Nek5 (Homo sapiens) (UniProt Q6P3R8)", "sequence (Q6P3R8 whole entry)": "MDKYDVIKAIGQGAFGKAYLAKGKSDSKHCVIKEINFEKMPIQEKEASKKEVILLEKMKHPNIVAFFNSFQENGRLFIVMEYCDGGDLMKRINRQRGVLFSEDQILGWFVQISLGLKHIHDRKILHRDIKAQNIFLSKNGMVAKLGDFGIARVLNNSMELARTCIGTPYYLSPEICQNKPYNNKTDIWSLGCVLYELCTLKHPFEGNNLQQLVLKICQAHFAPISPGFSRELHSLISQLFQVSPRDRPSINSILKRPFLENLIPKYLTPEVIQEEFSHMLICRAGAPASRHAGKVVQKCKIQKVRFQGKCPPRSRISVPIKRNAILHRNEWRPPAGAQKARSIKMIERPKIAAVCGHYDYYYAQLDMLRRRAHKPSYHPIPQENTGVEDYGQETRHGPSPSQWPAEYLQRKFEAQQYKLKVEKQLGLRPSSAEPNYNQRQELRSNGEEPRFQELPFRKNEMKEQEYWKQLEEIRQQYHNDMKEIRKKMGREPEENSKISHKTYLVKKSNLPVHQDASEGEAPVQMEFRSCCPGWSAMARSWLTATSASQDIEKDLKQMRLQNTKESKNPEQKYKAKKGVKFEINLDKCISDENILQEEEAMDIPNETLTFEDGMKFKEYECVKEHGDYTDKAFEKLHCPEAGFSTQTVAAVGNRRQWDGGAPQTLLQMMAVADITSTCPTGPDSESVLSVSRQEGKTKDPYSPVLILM", "assay": "Inhibition of NEK5 assessed as enzyme activity at 1 uM relative to untreated control"}, "[7]": {"molecular_target": "Mitogen-activated protein kinase 11 (Homo sapiens) (UniProt Q15759)", "sequence (Q15759 whole entry)": "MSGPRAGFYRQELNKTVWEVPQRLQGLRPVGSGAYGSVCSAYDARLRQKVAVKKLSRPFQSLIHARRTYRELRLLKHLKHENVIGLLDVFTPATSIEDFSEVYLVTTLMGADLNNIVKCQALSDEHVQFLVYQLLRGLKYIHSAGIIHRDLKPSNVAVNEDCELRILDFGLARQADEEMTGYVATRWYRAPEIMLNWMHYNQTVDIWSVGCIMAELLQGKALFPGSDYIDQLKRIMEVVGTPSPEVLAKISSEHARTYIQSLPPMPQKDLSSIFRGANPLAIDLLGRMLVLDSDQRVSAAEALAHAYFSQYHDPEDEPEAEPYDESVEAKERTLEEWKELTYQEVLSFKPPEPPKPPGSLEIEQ", "assay": "Inhibition of p38beta assessed as enzyme activity at 1 uM relative to untreated control"}, "[8]": {"molecular_target": "Tyrosine-protein kinase JAK2 (Homo sapiens) (UniProt O60674)", "assay": "Inhibition of JAK2 kinase domain 2 assessed as enzyme activity at 1 uM relative to untreated control"}, "[9]": {"molecular_target": "BMP-2-inducible protein kinase (Homo sapiens) (UniProt Q9NSY1)", "assay": "Inhibition of BIKE assessed as enzyme activity at 1 uM relative to untreated control"}, "[10]": {"molecular_target": "Calcium/calmodulin-dependent protein kinase kinase 2 (Homo sapiens) (UniProt Q96RR4)", "assay": "Inhibition of CAMKK2 assessed as enzyme activity at 1 uM relative to untreated control"}, "[11]": {"molecular_target": "Cyclin-dependent kinase 19 (Homo sapiens) (UniProt Q9BWU1)", "sequence (Q9BWU1 whole entry)": "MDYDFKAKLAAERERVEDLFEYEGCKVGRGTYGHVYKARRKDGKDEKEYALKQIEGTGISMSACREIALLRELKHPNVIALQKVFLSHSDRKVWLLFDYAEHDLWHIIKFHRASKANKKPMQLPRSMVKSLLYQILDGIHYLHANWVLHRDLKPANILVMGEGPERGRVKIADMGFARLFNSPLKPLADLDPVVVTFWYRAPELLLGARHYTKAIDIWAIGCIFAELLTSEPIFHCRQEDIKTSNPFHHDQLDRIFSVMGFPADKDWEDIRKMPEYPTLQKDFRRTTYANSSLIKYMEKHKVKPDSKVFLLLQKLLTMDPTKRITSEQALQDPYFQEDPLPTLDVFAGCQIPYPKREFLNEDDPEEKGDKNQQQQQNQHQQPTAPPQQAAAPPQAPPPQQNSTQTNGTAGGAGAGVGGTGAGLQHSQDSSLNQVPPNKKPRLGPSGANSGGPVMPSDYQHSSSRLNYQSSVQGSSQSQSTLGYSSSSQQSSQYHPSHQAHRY", "assay": "Inhibition of CDK11 assessed as enzyme activity at 1 uM relative to untreated control"}, "[12]": {"molecular_target": "Dual specificity protein kinase CLK2 (Homo sapiens) (UniProt P49760)", "assay": "Inhibition of CLK2 assessed as enzyme activity at 1 uM relative to untreated control"}, "[13]": {"molecular_target": "Casein kinase I isoform delta (Homo sapiens) (UniProt P48730)", "assay": "Inhibition of CSNK1D assessed as enzyme activity at 1 uM relative to untreated control"}, "[14]": {"molecular_target": "cGMP-dependent protein kinase 1 (Homo sapiens) (UniProt Q13976)", "assay": "Inhibition of PRKG1 assessed as enzyme activity at 1 uM relative to untreated control"}, "[15]": {"molecular_target": "Receptor-interacting serine/threonine-protein kinase 4 (Homo sapiens) (UniProt P57078)", "assay": "Inhibition of RIPK4 assessed as enzyme activity at 1 uM relative to untreated control"}, "[16]": {"molecular_target": "Ephrin type-A receptor 7 (Homo sapiens) (UniProt Q15375)", "assay": "Inhibition of EPHA7 assessed as enzyme activity at 1 uM relative to untreated control"}, "[17]": {"molecular_target": "Ephrin type-B receptor 2 (Homo sapiens) (UniProt P29323)", "sequence (P29323 whole entry)": "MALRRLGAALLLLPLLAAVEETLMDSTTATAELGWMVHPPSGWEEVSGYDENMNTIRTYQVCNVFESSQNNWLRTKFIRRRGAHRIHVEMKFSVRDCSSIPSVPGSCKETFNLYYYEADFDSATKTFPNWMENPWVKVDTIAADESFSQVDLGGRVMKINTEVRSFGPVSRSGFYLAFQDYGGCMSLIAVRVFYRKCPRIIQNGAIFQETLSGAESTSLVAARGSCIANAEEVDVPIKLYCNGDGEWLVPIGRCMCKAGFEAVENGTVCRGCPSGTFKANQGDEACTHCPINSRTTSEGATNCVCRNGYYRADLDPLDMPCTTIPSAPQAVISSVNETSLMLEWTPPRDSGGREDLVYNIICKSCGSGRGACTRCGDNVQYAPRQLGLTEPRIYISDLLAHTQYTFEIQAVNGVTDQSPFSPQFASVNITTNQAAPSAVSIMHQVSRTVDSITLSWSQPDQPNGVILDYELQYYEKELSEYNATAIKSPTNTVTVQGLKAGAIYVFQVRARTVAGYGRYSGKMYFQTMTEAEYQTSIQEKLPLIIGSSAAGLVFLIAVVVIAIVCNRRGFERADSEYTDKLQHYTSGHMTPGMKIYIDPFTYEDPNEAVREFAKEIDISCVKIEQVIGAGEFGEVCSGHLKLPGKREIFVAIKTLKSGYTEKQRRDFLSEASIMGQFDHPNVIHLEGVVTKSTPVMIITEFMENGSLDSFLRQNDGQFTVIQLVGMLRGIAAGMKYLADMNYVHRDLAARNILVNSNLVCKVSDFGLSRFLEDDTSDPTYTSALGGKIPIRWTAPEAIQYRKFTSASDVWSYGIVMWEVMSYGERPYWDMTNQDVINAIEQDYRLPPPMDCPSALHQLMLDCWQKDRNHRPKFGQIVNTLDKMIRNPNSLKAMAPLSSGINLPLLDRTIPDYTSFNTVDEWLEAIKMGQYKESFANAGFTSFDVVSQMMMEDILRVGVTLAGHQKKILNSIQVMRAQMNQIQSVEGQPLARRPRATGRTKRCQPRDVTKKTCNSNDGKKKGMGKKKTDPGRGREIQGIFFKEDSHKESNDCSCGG", "assay": "Inhibition of EPHB2 assessed as enzyme activity at 1 uM relative to untreated control"}, "[18]": {"molecular_target": "Mitogen-activated protein kinase 3 (Homo sapiens) (UniProt P27361)", "assay": "Inhibition of ERK1 assessed as enzyme activity at 1 uM relative to untreated control"}, "[19]": {"molecular_target": "Mitogen-activated protein kinase 7 (Homo sapiens) (UniProt Q13164)", "assay": "Inhibition of ERK5 assessed as enzyme activity at 1 uM relative to untreated control"}, "[20]": {"test_system": "Receptor-type tyrosine-protein kinase FLT3 (Homo sapiens), P36888 [K663Q]", "assay": "Inhibition of FLT3 K663Q mutant assessed as enzyme activity at 1 uM relative to untreated control"}, "[21]": {"molecular_target": "Inhibitor of nuclear factor kappa-B kinase subunit alpha (Homo sapiens) (UniProt O15111)", "assay": "Inhibition of IKK-alpha assessed as enzyme activity at 1 uM relative to untreated control"}, "[22]": {"molecular_target": "Serine/threonine-protein kinase 17A (Homo sapiens) (UniProt Q9UEE5)", "assay": "Inhibition of DRAK1 assessed as enzyme activity at 1 uM relative to untreated control"}, "[23]": {"test_system": "Epidermal growth factor receptor (Homo sapiens), P00533 [G719C]", "assay": "Inhibition of EGFR G719C mutant assessed as enzyme activity at 1 uM relative to untreated control", "assay_type": "protein assay"}, "[24]": {"molecular_target": "Ephrin type-A receptor 2 (Homo sapiens) (UniProt P29317)", "assay": "Inhibition of EPHA2 assessed as enzyme activity at 1 uM relative to untreated control"}, "[25]": {"molecular_target": "Activin receptor type-1 (Homo sapiens) (UniProt Q04771)", "assay": "Inhibition of ACVR1 assessed as enzyme activity at 1 uM relative to untreated control"}, "[26]": {"molecular_target": "Serine/threonine-protein kinase PAK 5 (Homo sapiens) (UniProt Q9P286)", "assay": "Inhibition of PAK7/PAK5 assessed as enzyme activity at 1 uM relative to untreated control"}, "[27]": {"molecular_target": "Phosphatidylinositol 4-phosphate 3-kinase C2 domain-containing subunit beta (Homo sapiens) (UniProt O00750)", "assay": "Inhibition of PIK3C2B assessed as enzyme activity at 1 uM relative to untreated control"}, "[28]": {"molecular_target": "Serine/threonine-protein kinase pim-1 (Homo sapiens) (UniProt P11309)", "sequence (P11309 whole entry, looked up)": "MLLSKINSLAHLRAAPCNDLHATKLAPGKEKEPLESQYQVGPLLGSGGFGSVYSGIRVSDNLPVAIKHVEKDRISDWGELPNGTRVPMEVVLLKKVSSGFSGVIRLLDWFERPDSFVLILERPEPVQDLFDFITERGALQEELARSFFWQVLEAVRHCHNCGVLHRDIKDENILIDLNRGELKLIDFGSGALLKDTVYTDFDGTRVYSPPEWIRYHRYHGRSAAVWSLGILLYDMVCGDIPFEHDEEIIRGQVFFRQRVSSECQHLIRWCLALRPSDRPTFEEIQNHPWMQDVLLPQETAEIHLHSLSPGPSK", "assay": "Inhibition of PIM1 assessed as enzyme activity at 1 uM relative to untreated control"}, "[29]": {"molecular_target": "Serine/threonine-protein kinase N2 (Homo sapiens) (UniProt Q16513)", "assay": "Inhibition of PKN2 assessed as enzyme activity at 1 uM relative to untreated control"}, "[30]": {"molecular_target": "Serine/threonine-protein kinase PLK1 (Homo sapiens) (UniProt P53350)", "assay": "Inhibition of PLK1 assessed as enzyme activity at 1 uM relative to untreated control"}, "[31]": {"molecular_target": "5'-AMP-activated protein kinase catalytic subunit alpha-2 (Homo sapiens) (UniProt P54646)", "assay": "Inhibition of AMPKalpha2 assessed as enzyme activity at 1 uM relative to untreated control"}, "[32]": {"molecular_target": "Aurora kinase B (Homo sapiens) (UniProt Q96GD4)", "assay": "Inhibition of AURKB assessed as enzyme activity at 1 uM relative to untreated control"}, "[33]": {"molecular_target": "TGF-beta receptor type-2 (Homo sapiens) (UniProt P37173)", "assay": "Inhibition of TGFBR2 assessed as enzyme activity at 1 uM relative to untreated control"}, "[34]": {"molecular_target": "Serine/threonine-protein kinase tousled-like 1 (Homo sapiens) (UniProt Q9UKI8)", "assay": "Inhibition of TLK1 assessed as enzyme activity at 1 uM relative to untreated control"}, "[35]": {"molecular_target": "Serine/threonine-protein kinase TNNI3K (Homo sapiens) (UniProt Q59H18)", "assay": "Inhibition of TNNI3K assessed as enzyme activity at 1 uM relative to untreated control"}, "[36]": {"molecular_target": "BDNF/NT-3 growth factors receptor (Homo sapiens) (UniProt Q16620)", "assay": "Inhibition of TRKB assessed as enzyme activity at 1 uM relative to untreated control"}, "[37]": {"molecular_target": "Testis-specific serine/threonine-protein kinase 1 (Homo sapiens) (UniProt Q9BXA7)", "sequence (Q9BXA7 whole entry)": "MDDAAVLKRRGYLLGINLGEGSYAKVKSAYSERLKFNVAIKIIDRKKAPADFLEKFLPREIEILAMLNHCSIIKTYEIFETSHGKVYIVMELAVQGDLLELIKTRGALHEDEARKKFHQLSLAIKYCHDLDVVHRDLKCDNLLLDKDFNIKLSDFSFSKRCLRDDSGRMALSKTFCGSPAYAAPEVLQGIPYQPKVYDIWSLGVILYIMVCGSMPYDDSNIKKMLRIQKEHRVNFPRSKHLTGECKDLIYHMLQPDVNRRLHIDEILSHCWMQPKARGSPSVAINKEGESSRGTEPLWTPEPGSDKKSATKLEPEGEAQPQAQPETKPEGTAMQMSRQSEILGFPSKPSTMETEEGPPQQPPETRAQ", "assay": "Inhibition of TSSK1 assessed as enzyme activity at 1 uM relative to untreated control"}},
  "data": [
    {"smiles": "Cc1ccc2c(Nc3ccc(Cl)cc3)nccc2c1Nc1ncccc1-c1ncnc2[nH]cnc12.Cl.Cl.Cl", "values": [
      {"measurement": "Activity", "setting": "[1]", "result": 100, "unit": "%"},
      {"measurement": "Activity", "setting": "[2]", "result": 100, "unit": "%"},
      {"measurement": "Activity", "setting": "[3]", "result": 100, "unit": "%"},
      {"measurement": "Activity", "setting": "[4]", "result": 100, "unit": "%"},
      {"measurement": "Activity", "setting": "[5]", "result": 100, "unit": "%"},
      {"measurement": "Activity", "setting": "[6]", "result": 98, "unit": "%"},
      {"measurement": "Activity", "setting": "[7]", "result": 99, "unit": "%"},
      {"measurement": "Activity", "setting": "[8]", "result": 3.9, "unit": "%"},
      {"measurement": "Activity", "setting": "[9]", "result": 70, "unit": "%"},
      {"measurement": "Activity", "setting": "[10]", "result": 98, "unit": "%"},
      {"measurement": "Activity", "setting": "[11]", "result": 100, "unit": "%"},
      {"measurement": "Activity", "setting": "[12]", "result": 100, "unit": "%"},
      {"measurement": "Activity", "setting": "[13]", "result": 99, "unit": "%"},
      {"measurement": "Activity", "setting": "[14]", "result": 93, "unit": "%"},
      {"measurement": "Activity", "setting": "[15]", "result": 64, "unit": "%"},
      {"measurement": "Activity", "setting": "[16]", "result": 4.7, "unit": "%"},
      {"measurement": "Activity", "setting": "[17]", "result": 6.1, "unit": "%"},
      {"measurement": "Activity", "setting": "[18]", "result": 100, "unit": "%"},
      {"measurement": "Activity", "setting": "[19]", "result": 95, "unit": "%"},
      {"measurement": "Activity", "setting": "[20]", "result": 75, "unit": "%"},
      {"measurement": "Activity", "setting": "[21]", "result": 100, "unit": "%"},
      {"measurement": "Activity", "setting": "[22]", "result": 100, "unit": "%"},
      {"measurement": "Activity", "setting": "[23]", "result": 92, "unit": "%"},
      {"measurement": "Activity", "setting": "[24]", "result": 2.8, "unit": "%"},
      {"measurement": "Activity", "setting": "[25]", "result": 100, "unit": "%"},
      {"measurement": "Activity", "setting": "[26]", "result": 90, "unit": "%"},
      {"measurement": "Activity", "setting": "[27]", "result": 100, "unit": "%"},
      {"measurement": "Activity", "setting": "[28]", "result": 93, "unit": "%"},
      {"measurement": "Activity", "setting": "[29]", "result": 86, "unit": "%"},
      {"measurement": "Activity", "setting": "[30]", "result": 100, "unit": "%"},
      {"measurement": "Activity", "setting": "[31]", "result": 96, "unit": "%"},
      {"measurement": "Activity", "setting": "[32]", "result": 85, "unit": "%"},
      {"measurement": "Activity", "setting": "[33]", "result": 100, "unit": "%"},
      {"measurement": "Activity", "setting": "[34]", "result": 83, "unit": "%"},
      {"measurement": "Activity", "setting": "[35]", "result": 21, "unit": "%"},
      {"measurement": "Activity", "setting": "[36]", "result": 9.4, "unit": "%"},
      {"measurement": "Activity", "setting": "[37]", "result": 71, "unit": "%"}
    ]}
  ]
}
